For 63 compounds, IC50 and IC90 results are on record in ChEMBL document CHEMBL4483862, “Open-source discovery of chemical leads for next-generation chemoprotective antimalarials” (2018).

This test relates to Plasmodium berghei. The experiment in a line: Luciferase/luciferin-expressing antifolate-resistant parasites were used to infect a culture of HepG2 cells that were pre-incubated with compounds. Infected hepatocytes emit light due to the luciferase reaction. Assay results are presented as the percent inhibition of light emission compared to control. […]. Type of test: functional. Conditions: sporozoite; for IC50: read-out: LUCIFERASE INFECTION ASSAY - IC50; for IC90: read-out: LUCIFERASE INFECTION ASSAY - IC90.

On to `COC(=O)c1cccc(OC(=O)/C=C/c2ccc(-c3ccccc3)s2)c1`, for which the IC50 (as a rule, the midpoint of a concentration-inhibition curve) was greater than 10 µM and the IC90 (as a rule, the concentration at which the effect reaches the 90% level) is greater than 10 µM.
Regarding `O=C(COC(=O)c1cc(-c2ccccc2)c(N2CCOCC2)s1)c1ccc2c(c1)OCCO2`, the IC50 was greater than 10 µM and the IC90 was greater than 10 µM.
In the case of `COc1ccc(/C=C/C(=O)N2CCCC2c2cccs2)cc1S(=O)(=O)N1CCCCC1` (stereo unspecified), the half-inhibitory concentration (IC50) was greater than 10 µM and the concentration for an effect of 90% (IC90) was greater than 10 µM.
`Cc1nc2ccccn2c1C(=O)N/N=C/c1c(-c2ccccc2)n(-c2ccccc2)c2ccccc12`: the IC50 is greater than 10 µM and the IC90 was greater than 10 µM.
In the case of `COc1ccc2nc(N(Cc3ccccc3)C(=O)C3Cc4ccccc4C(=O)O3)sc2c1` (stereo unspecified), the IC50 was greater than 10 µM and the IC90 was greater than 10 µM.
With `Cc1cc2nc(Oc3ccc4c(c3)CCC4)c3ccccc3n2n1`, the IC50 was greater than 10 µM and the 90% effect concentration (IC90) was greater than 10 µM.
On to `COc1ccc(-n2nnnc2SCC(=O)Nc2cc(-c3ccc(C)cc3)nn2-c2ccccc2)cc1`, for which the half-inhibitory concentration (IC50) is greater than 10 µM and the 90% effect concentration (IC90) is greater than 10 µM.
For the compound `CC1CCN(Cc2nc3scc(-c4ccccc4)c3c(=O)n2CC(=O)N2CCc3ccccc32)CC1`, the IC50 was greater than 10 µM and the IC90 was greater than 10 µM.
For `Cc1ccc(-c2cc3nc(SCCOc4ccccc4F)n(Cc4ccccc4)c(=O)c3s2)cc1`, the IC50 was greater than 10 µM and the IC90 was greater than 10 µM.
On to `CCOC(=O)c1c(NC(=O)COC(=O)c2ccccc2Nc2cccc(C)c2C)sc(C(=O)N(C)C)c1C`, for which the IC50 is greater than 10 µM and the IC90 is greater than 10 µM.
On to `COc1ccc(-c2nn(-c3ccccc3)cc2CN(Cc2ccccc2)C(=O)c2ccco2)cc1`, for which the IC50 is greater than 10 µM and the IC90 is greater than 10 µM.
In the case of `CC(C)(C)C(=O)/C=c1\[nH]c(=O)/c(=C\c2ccc(Oc3ccc(F)cc3)c([N+](=O)[O-])c2)s1`, the IC50 was greater than 10 µM and the IC90 was greater than 10 µM.
Consider `CS(=O)(=O)N1CCc2cc(C(=O)CSc3nc(-c4cccs4)nc4ccccc34)ccc21`, for which the concentration for half-maximal inhibition (IC50) was greater than 10 µM and the IC90 is greater than 10 µM.
On to `Cc1noc(C)c1COc1ccc(C(=O)OCC(=O)N(C)C2(C#N)CCCCC2)cc1`, for which the IC50 was greater than 10 µM and the IC90 is greater than 10 µM.
With `COc1ccc(NC(=O)C(OC(=O)c2ccccc2SCC(=O)Nc2c(C)n(C)n(-c3ccccc3)c2=O)c2ccccc2)cc1Cl` (stereo unspecified), the IC50 is greater than 10 µM and the IC90 was greater than 10 µM.
In the case of `Cc1cc(=O)c(C(=O)Nc2cc(C(F)(F)F)ccc2N2CCCCC2)nn1-c1ccccc1Cl`, the IC50 was greater than 10 µM and the IC90 was greater than 10 µM.
Regarding `c1ccc(-c2csc3ncnc(Sc4nnc(C5COc6ccccc6O5)n4-c4ccccc4)c23)cc1` (stereo unspecified), the IC50 was greater than 10 µM and the IC90 is greater than 10 µM.
With `O=C(Cn1ncc(Cl)c(Cl)c1=O)Nc1ccc(OCc2ccccc2)cc1`, the IC50 was greater than 10 µM and the IC90 was greater than 10 µM.
On to `Cc1ccc(S(=O)(=O)N2CCC(C(=O)Nc3nnc(-c4ccc(Cl)cc4)o3)CC2)c(C)c1`, for which the IC50 is greater than 10 µM and the IC90 was greater than 10 µM.
Turning to `Cc1cc(C)c(NC(=O)c2cc(-c3ccccc3)nn2-c2ccccc2)c(C)c1`, the 50% inhibitory concentration (IC50) is greater than 10 µM and the IC90 is greater than 10 µM.
`CC1CCN(Cc2nc(Oc3cccc4c3OC(C)(C)C4)c3c(-c4ccccc4)csc3n2)CC1`: the half-inhibitory concentration (IC50) is greater than 10 µM and the IC90 was greater than 10 µM.
As to `CCOc1ccccc1OCC(=O)Nc1nc(-c2cc(C)n(-c3ccc(F)cc3)c2C)cs1`, the IC50 was greater than 10 µM and the IC90 was greater than 10 µM.
Turning to `CC1CCc2c(sc3nc(CN4CCOCC4)nc(Oc4ccc(Cl)c5cccnc45)c23)C1` (stereo unspecified), the IC50 was greater than 10 µM and the IC90 is greater than 10 µM.
As to `COc1cccc(C(CNc2nc(C)nc3sc4c(c23)CCCCC4)N2CCCC2)c1` (stereo unspecified), the IC50 is greater than 10 µM and the IC90 is greater than 10 µM.
Turning to `COc1cc(/C=N/Nc2nc(Cl)c(Cl)cc2Cl)ccc1OCC(=O)N1CC(C)OC(C)C1` (stereo unspecified), the IC50 is greater than 10 µM and the IC90 is greater than 10 µM.
As to `Cc1cc(C(=O)N/N=C/c2ccc(Sc3ncccn3)c([N+](=O)[O-])c2)c(C)n1-c1ccccc1`, the IC50 is greater than 10 µM and the IC90 was greater than 10 µM.
As to `CCCCOc1ccc(CN2CCN(CC(=O)NC)CC2)cc1OCC`, the concentration for half-maximal inhibition (IC50) was greater than 10 µM and the IC90 was greater than 10 µM.
Turning to `O=C(N/N=C/c1sc(Nc2ccccc2)nc1Cl)c1cc(-c2ccncc2)nc2ccccc12`, the IC50 is greater than 10 µM and the 90% effect concentration (IC90) is greater than 10 µM.
On to `CC(OC(=O)/C=C/c1ccc2ccccc2n1)C(=O)NC1CCCc2ccccc21` (stereo unspecified), for which the IC50 is greater than 10 µM and the IC90 was greater than 10 µM.
On to `COc1ccc(Cc2nnc(SCC(=O)/C(C#N)=C(\C)N)n2-c2ccc(Oc3ccccc3)cc2)cc1OC`, for which the IC50 was greater than 10 µM and the concentration for an effect of 90% (IC90) is greater than 10 µM.
Regarding `CS(=O)(=O)c1ccc(Oc2ccc(-n3ccnc3)cc2)c([N+](=O)[O-])c1`, the half-maximal inhibitory concentration (IC50) was greater than 10 µM and the IC90 was greater than 10 µM.
As to `O=S(=O)(NCCCCOc1ccc(Cl)cc1)c1ccc(S(=O)(=O)N2CCOCC2)cc1`, the IC50 was 9.97 µM and the IC90 was greater than 10 µM.
For `Cc1ccc(Cn2ccs/c2=N/C(=O)COC(=O)CCN2C(=O)C3CC=CCC3C2=O)cc1` (stereo unspecified) the same measures were greater than 10 µM and greater than 10 µM.
In the case of `CCCCN(C(=O)c1cccnc1SC)c1nc2ccc(C)cc2s1`, the 50% inhibitory concentration (IC50) is greater than 10 µM and the 90% effect concentration (IC90) is greater than 10 µM.
For the compound `CCOC(=O)c1c(NC(=O)C(C)N(C)CC(=O)Nc2cc(C)ccc2C)sc2c1CCC(C)C2` (stereo unspecified), the 50% inhibitory concentration (IC50) was greater than 10 µM and the IC90 is greater than 10 µM.
With `Cc1ccc(S(=O)(=O)N/N=C/c2c(C)nn(-c3ccccc3)c2C)cc1[N+](=O)[O-]`, the IC50 was greater than 10 µM and the IC90 is greater than 10 µM.
`O=C(CN1CC=C(c2ccccc2)CC1)NC(c1ccccc1)c1ccccc1`: the IC50 was greater than 10 µM and the IC90 is greater than 10 µM.
Turning to `Cc1csc2nc(COC(=O)c3ccc(-c4nc5ccccc5s4)o3)cc(=O)n12`, the IC50 is greater than 10 µM and the IC90 is greater than 10 µM.
In the case of `CCn1c2ccccc2c2cc(/C=C3\SC(=S)N(CCCN(C)C)C3=O)ccc21`, the IC50 is greater than 10 µM and the IC90 is greater than 10 µM.
`CCOc1cc(/C=C(\C#N)C(=O)c2cccc(OC)c2)cc(Cl)c1O`: the 50% inhibitory concentration (IC50) was greater than 10 µM and the concentration for an effect of 90% (IC90) was greater than 10 µM.
On to `Cc1c(C(=O)OCC(=O)c2cc(C)n(-c3cccc(F)c3)c2C)sc2nc3n(c(=O)c12)CCC3`, for which the IC50 was greater than 10 µM and the concentration for an effect of 90% (IC90) is greater than 10 µM.
As for `CN(CCCc1[nH]nc(N)c1C#N)c1nc(-c2ccccn2)nc2scc(-c3ccccc3)c12`, the IC50 was 7.69 µM and the IC90 was greater than 10 µM.
`O=C(COC(=O)c1ccccc1NCCO)NC(=O)NCc1ccco1`: the IC50 was greater than 10 µM and the IC90 is greater than 10 µM.
On to `Cc1nnnn1/C(=C\c1ccccc1)C(=O)N(Cc1cccs1)c1ccc2c(c1)OCCO2`, for which the IC50 is greater than 10 µM and the 90% effect concentration (IC90) was greater than 10 µM.
Regarding `O=C(COC(=O)c1cn(-c2ccccc2)nc1-c1cccs1)Nc1nnc(-c2ccccc2)o1`, the IC50 is greater than 10 µM and the IC90 is greater than 10 µM.
As for `CCN(CC)Cc1ccc(CNC(=O)c2oc3ccccc3c2CSc2nnc[nH]2)cc1`, the IC50 is 2.48 µM and the IC90 is greater than 10 µM.
For `CCCCn1nc(C(=O)Nc2nc(-c3ccc(CCNC(C)=O)cc3)cs2)c2ccccc2c1=O`, the IC50 was greater than 10 µM and the IC90 is greater than 10 µM.
With `COCCCn1c(Sc2ncnc3sc4c(c23)CCC4)nc2sc3c(c2c1=O)CCC3`, the IC50 is greater than 10 µM and the IC90 was greater than 10 µM.
Consider `CCOc1cc(C(=O)N(CC2CCCO2)C2CCS(=O)(=O)C2)cc(OCC)c1OCC` (stereo unspecified), for which the IC50 was greater than 10 µM and the IC90 is greater than 10 µM.
As to `CC(C)(C)c1ccc(NC(=O)CSc2ccc(S(=O)(=O)N3CCN(Cc4ccccc4)CC3)cn2)cc1`, the IC50 was 4.44 µM and the concentration for an effect of 90% (IC90) is 9.27 µM.
As for `CCCn1c(NC(=O)CCN(c2ccc(C)cc2)S(=O)(=O)c2ccc(C)cc2)nc2ccccc21`, the IC50 is greater than 10 µM and the IC90 is greater than 10 µM.
With `C/C(N)=C(/C#N)C(=O)CSc1nnc(-c2ccc(C(C)(C)C)cc2)n1-c1cccc(Cl)c1Cl`, the half-inhibitory concentration (IC50) was greater than 10 µM and the 90% effect concentration (IC90) was greater than 10 µM.
In the case of `Cc1ccc2c(COC(=O)[C@@H]3CCCN3C(=O)c3cccs3)cc(=O)oc2c1`, the IC50 was greater than 10 µM and the IC90 is greater than 10 µM.
As to `CCc1ccc(CN(C)C(C)C(=O)Nc2cc(S(=O)(=O)N(C)C)ccc2C)cc1` (stereo unspecified), the IC50 turned out to be 8.31 µM and the IC90 was greater than 10 µM.
Taken in the same sequence, the figures for `C=CCNc1nc(C(=O)OCc2cc(=O)n3cc(Br)ccc3n2)cs1` were greater than 10 µM and greater than 10 µM.
Taken in the same sequence, the figures for `Cc1csc(C(C#N)C(=O)COC(=O)c2ccccc2SCC(=O)N(C)C)n1` (stereo unspecified) were greater than 10 µM and greater than 10 µM.
As to `Cc1cc2oc(=O)cc(COC(=O)c3cccc(S(=O)(=O)N(Cc4ccccc4)c4cccc(C(F)(F)F)c4)c3)c2cc1C(C)C`, the IC50 was greater than 10 µM and the IC90 is greater than 10 µM.
As to `Cc1noc(C)c1CSc1ncccc1C(=O)N(C)c1ccc2ccccc2c1`, the concentration for half-maximal inhibition (IC50) is greater than 10 µM and the IC90 is greater than 10 µM.
For `Cc1cccc(C=C(C(=O)Nc2ccccc2Cl)C(=O)Nc2ccccc2Cl)c1`, the concentration for half-maximal inhibition (IC50) is greater than 10 µM and the IC90 was greater than 10 µM.
As to `O=C(Nc1ccccc1C(=O)OCN1C(=O)c2ccccc2C1=O)c1ccc([N+](=O)[O-])cc1Cl`, the IC50 is greater than 10 µM and the concentration for an effect of 90% (IC90) was greater than 10 µM.
Consider `Cc1ccc(Sc2ccc(/C=c3\s/c(=C\C(=O)c4ccc(Cl)cc4)[nH]c3=O)cc2[N+](=O)[O-])cc1`, for which the IC50 was greater than 10 µM and the IC90 was greater than 10 µM.
On to `COc1cc([N+](=O)[O-])ccc1NC(=O)CN1CCc2ccccc2C1`, for which the 50% inhibitory concentration (IC50) is greater than 10 µM and the IC90 is greater than 10 µM.
Take `Cc1c(/C=N/NC(=O)c2ccccc2)c(Cl)n(C)c(=O)c1C#N`: the IC50 was greater than 10 µM and the IC90 is greater than 10 µM.
